In patent publication US7202254B2, “Antibacterial compounds: process for their preparation and pharmaceutical compositions containing them” (Dr. Reddy's Laboratories Limited, priority 2002, dated 2007):
Values after ≈ are worked out from the molar mass of the structure shown.

Legend:
[1] = test system: Enterococcus faecium NCTC 12202; experiment: MIC by broth microdilution, Enterococcus sp DRCC 154 (R); type: cell-based; conditions: NCTC12202; DRCC 154 = Enterococcus faecium NCTC 12202, R; Mueller Hinton Broth, overnight 37° C.; read-out: Antimicrobial Screening (MIC) Enterococcus sp 154 R
Method: (§1) Minimum Inhibiton Concentrations (MICs) were determined by broth microdilution technique as per the guidelines prescribed om the fifth edition of Approved Standards, NCCLS document M7-A5 Vol 20-No 2, 2000 Villinova, Pa.
(§2) Initial stock solution of the test compound was prepared in DMSO. Subsequent two fold dilutions were carried out in sterile Mueller Hinton Broth (Difco) (MHB).
(§3) Frozen cultures stocks were inoculated into 50 mL sterile MHB in 250 mL Erlyn Meyer flasks.
(§4) Flasks were incubated for 4 to 5 h at 35° C. on a rotary shaker at 150 rpm. Inoculum was prepared by diluting the culture in sterile MHB to obtain a turbidity of 0.5 McFarland standard. This corresponds to 1–2×10^8 CFU/mL. The stock was further diluted in sterile broth to obtain 1–2×10^6 CFU/mL. 50 μl of the above diluted inoculum was added from 1–10 wells. The plates were incubated overnight at 37° C.

[2] = test system: Staphylococcus aureus ATCC 49951; experiment: MIC by broth microdilution, Staphylococcus aureus DRCC 213 (Smith S); type: cell-based; conditions: ATCC49951, DRCC 213 = ATCC 49951, Smith S, Mueller Hinton Broth, overnight 37° C., read-out: Antimicrobial Screening (MIC) Staphylococcus aureus 213 Smith S
Method: as §1, §2, §3, §4

[3] = test system: Staphylococcus aureus ATCC 33591; experiment: MIC by broth microdilution, Staphylococcus aureus DRCC 019 (MRSA); type: cell-based; conditions: DRCC 019 = ATCC 33591, MRSA, Mueller Hinton Broth, overnight 37° C., read-out: Antimicrobial Screening (MIC) Staphylococcus aureus 019 MRSA
Method: as §1, §2, §3, §4

[4] = test system: Staphylococcus aureus ATCC 29213; experiment: MIC by broth microdilution, Staphylococcus aureus DRCC 035 (S); type: cell-based; conditions: ATCC29213, DRCC 035 = ATCC 29213, S, Mueller Hinton Broth, overnight 37° C., read-out: Antimicrobial Screening (MIC) Staphylococcus aureus 035 S
Method: as §1, §2, §3, §4

[5] = test system: Enterococcus faecalis NCTC 12201; experiment: MIC by broth microdilution, Enterococcus sp DRCC 153 (R); type: cell-based; conditions: NCTC12201; DRCC 153 = Enterococcus faecalis NCTC 12201, R; Mueller Hinton Broth, overnight 37° C.; read-out: Antimicrobial Screening (MIC) Enterococcus sp 153 R
Method: as §1, §2, §3, §4

[6] = test system: Escherichia coli ATCC 25922; experiment: MIC by broth microdilution, E coli DRCC 18 (S); type: cell-based; conditions: ATCC25922; DRCC 018 = Escherichia coli ATCC 25922, S; Mueller Hinton Broth, overnight 37° C.; read-out: Antimicrobial Screening (MIC) E coli 18 S
Method: as §1, §2, §3, §4

[7] = test system: Enterococcus faecalis ATCC 29212; experiment: MIC by broth microdilution, Enterococcus sp DRCC 034 (S); type: cell-based; conditions: ATCC29212; DRCC 034 = Enterococcus faecalis ATCC 29212, S; Mueller Hinton Broth, overnight 37° C.; read-out: Antimicrobial Screening (MIC) Enterococcus sp 034 S
Method: as §1, §2, §3, §4

With CC(=S)NCc1cn(-c2cc(F)c(N3CCOCC3)c(F)c2)nn1 [Example 51, N-[1-(3,5-Difluoro-4-morpholin-4-yl-phenyl)-1H-[1,2,3]triazol-4-ylmethyl]-thioacetamide] the MIC [1] was 2 µg/mL (≈ 5.66 µM), the MIC [2] was 1 µg/mL (≈ 2.83 µM) and the MIC [3] was 1 µg/mL (≈ 2.83 µM). It also gave a melting point of 190 °C, an MIC [4] of 1 µg/mL (≈ 2.83 µM) and an MIC [5] of 1 µg/mL (≈ 2.83 µM). The MIC [6] was 32 µg/mL (≈ 90.5 µM) and the MIC [7] was 2 µg/mL (≈ 5.66 µM).

With CC(=S)NCc1cn(-c2ccc(N3CCOCC3)c(F)c2)nn1 [Example 52, N-[1-(3-Fluoro-4-morpholin-4-yl-phenyl)-1H-[1,2,3]triazol-4-ylmethyl]-thioacetamide] the MIC [1] was 2 µg/mL (≈ 5.96 µM), the MIC [2] was 2 µg/mL (≈ 5.96 µM) and the MIC [3] was 2 µg/mL (≈ 5.96 µM). The melting point was 192 °C, the MIC [4] was 2 µg/mL (≈ 5.96 µM) and the MIC [5] was 2 µg/mL (≈ 5.96 µM). The MIC [6] was 256 µg/mL (≈ 763 µM) and the MIC [7] was 2 µg/mL (≈ 5.96 µM).

In the case of COC(=S)NCc1cn(-c2cc(F)c(N3CCOCC3)c(F)c2)nn1 [Example 54, [1-(3,5-Difluoro-4-morpholin-4-yl-phenyl)-1H-[1,2,3]triazol-4-ylmethyl]-thiocarbamic acid O-methyl ester], the MIC [1] is reported as 4 µg/mL (≈ 10.8 µM), the MIC [2] is reported as 2 µg/mL (≈ 5.41 µM) and the MIC [3] is reported as 2 µg/mL (≈ 5.41 µM). The melting point was 135 °C, the MIC [4] was 4 µg/mL (≈ 10.8 µM) and the MIC [5] was 4 µg/mL (≈ 10.8 µM). For the same molecule, the MIC [6] was 32 µg/mL (≈ 86.6 µM) and the MIC [7] was 4 µg/mL (≈ 10.8 µM).

For COC(=S)NCc1cn(-c2ccc(N3CCOCC3)c(F)c2)nn1 [Example 55, [1-(3-Fluoro-4-morpholin-4-yl-phenyl)-1H-[1,2,3]triazol-4-ylmethyl]-thiocarbamic acid O-methyl ester], the MIC [1] was 8 µg/mL (≈ 22.8 µM), the MIC [2] was 4 µg/mL (≈ 11.4 µM) and the MIC [3] was 4 µg/mL (≈ 11.4 µM). For the same molecule, the melting point was 148 °C, the MIC [4] was 4 µg/mL (≈ 11.4 µM) and the MIC [5] was 4 µg/mL (≈ 11.4 µM). For the same molecule, the MIC [6] was 32 µg/mL (≈ 91.1 µM).

COC(=S)NCc1cn(-c2cc(F)c(N3CCSCC3)c(F)c2)nn1 [Example 56, [1-(3,5-Difluoro-4-thiomorpholin-4-yl-phenyl)-1H-[1,2,3]triazol-4-ylmethyl]-thiocarbamic acid O-methyl ester] gave an MIC [1] of 8 µg/mL (≈ 20.8 µM), an MIC [2] of 1 µg/mL (≈ 2.59 µM) and an MIC [3] of 1 µg/mL (≈ 2.59 µM). The melting point was 127 °C, the MIC [4] was 2 µg/mL (≈ 5.19 µM) and the MIC [5] was 2 µg/mL (≈ 5.19 µM). The MIC [6] was 32 µg/mL (≈ 83 µM) and the MIC [7] was 2 µg/mL (≈ 5.19 µM).

COC(=S)NCc1cn(-c2cc(F)c(N3CCS(=O)(=O)CC3)c(F)c2)nn1 [Example 58, {1-[4-(1,1-Dioxo-1lambda*6*-thiomorpholin-4-yl)-3,5-difluoro-phenyl]-1H-[1,2,3]triazol-4-ylmethyl}-thiocarbamic acid O-methyl ester] showed an MIC [1] of 4 µg/mL (≈ 9.58 µM), an MIC [2] of 2 µg/mL (≈ 4.79 µM) and an MIC [3] of 1 µg/mL (≈ 2.4 µM). The melting point was 162 °C, the MIC [4] was 2 µg/mL (≈ 4.79 µM) and the MIC [5] was 2 µg/mL (≈ 4.79 µM). The MIC [6] was 32 µg/mL (≈ 76.7 µM) and the MIC [7] was 4 µg/mL (≈ 9.58 µM).

With COC(=S)NCc1cn(-c2ccc(N3CCSCC3)c(F)c2)nn1 [Example 59, [1-(3-Fluoro-4-thiomorpholin-4-yl-phenyl)-1H-[1,2,3]triazol-4-ylmethyl]-thiocarbamic acid O-methyl ester] the MIC [1] was 8 µg/mL (≈ 21.8 µM), the MIC [2] was 2 µg/mL (≈ 5.44 µM) and the MIC [3] was 2 µg/mL (≈ 5.44 µM). It also gave a melting point of 168 °C, an MIC [4] of 4 µg/mL (≈ 10.9 µM) and an MIC [5] of 8 µg/mL (≈ 21.8 µM). For the same molecule, the MIC [6] was > 32 µg/mL and the MIC [7] was 8 µg/mL (≈ 21.8 µM).

In the case of COC(=S)NCc1cn(-c2ccc(N3CC[S+]([O-])CC3)c(F)c2)nn1 [Example 60, {1-[3-Fluoro-4-(1-oxo-lambda*4*-thiomorpholin-4-yl)-phenyl]-1H-[1,2,3]triazol-4-ylmethyl}-thiocarbamic acid O-methyl ester], the MIC [1] is reported as 4 µg/mL (≈ 10.4 µM), the MIC [2] is reported as 1 µg/mL (≈ 2.61 µM) and the MIC [3] is reported as 1 µg/mL (≈ 2.61 µM). The melting point was 198 °C, the MIC [4] was 2 µg/mL (≈ 5.22 µM) and the MIC [5] was 1 µg/mL (≈ 2.61 µM). The MIC [6] was > 32 µg/mL and the MIC [7] was 2 µg/mL (≈ 5.22 µM).

For COC(=S)NCc1cn(-c2ccc(N3CCS(=O)(=O)CC3)c(F)c2)nn1 [Example 61, {1-[4-(1,1-Dioxo-1lambda*6*-thiomorpholin-4-yl)-3-fluoro-phenyl]-1H-[1,2,3]triazol-4-ylmethyl}-thiocarbamic acid O-methyl ester], the MIC [1] was 8 µg/mL (≈ 20 µM), the MIC [2] was 2 µg/mL (≈ 5.01 µM) and the MIC [3] was 2 µg/mL (≈ 5.01 µM). For the same molecule, the melting point was 184 °C, the MIC [4] was 4 µg/mL (≈ 10 µM) and the MIC [5] was 2 µg/mL (≈ 5.01 µM). The MIC [6] was > 32 µg/mL and the MIC [7] was 2 µg/mL (≈ 5.01 µM).

Molecule CSC(=S)NCc1cn(-c2ccc(N3CCOCC3)c(F)c2)nn1 [Example 67, [1-(3-Fluoro-4-morpholin-4-yl-phenyl)-1H-[1,2,3]triazol-4-ylmethyl]-dithiocarbamic acid methyl ester] has an MIC [1] of 1 µg/mL (≈ 2.72 µM), an MIC [2] of 1 µg/mL (≈ 2.72 µM) and an MIC [3] of 1 µg/mL (≈ 2.72 µM). For the same molecule, the MIC [4] was 1 µg/mL (≈ 2.72 µM), the MIC [5] was 1 µg/mL (≈ 2.72 µM) and the MIC [6] was 32 µg/mL (≈ 87.1 µM). The MIC [7] was 1 µg/mL (≈ 2.72 µM).
